Measured values reported in US20130072505A1, “6,9-Disubstituted Purine Derivatives and Their Use for Treating Skin” (priority 2006, published 2013).

Experiments:
[1] = system: Female SKH-1 hairless mice; test: topical skin anti-aging treatment, hairless mouse model; type: in vivo; details: 3 weeks
Description: The safety and efficacy of the 6,9-disubstituted purine derivatives of this invention as topical skin anti-aging treatments were examined using the hairless mouse model (a well established model for studying the treatments of photoaging). Female SKH-1 hairless mice (5 weeks old, 20-25 grams, Charles River Laboratories, Wilmington, Mass.) were individually housed in filter-top cages, and acclimated for 5-7 days after delivery. […] Water and mouse chow are provided ad libitum. The experimental groups (6 mice per group) included the following treatments: (1) Untreated control; (2) Vehicle control (MillCreek Lotion); […] The various treatments were applied daily (Monday-Friday) for 3 weeks to the dorsal skin (about 2 cm×2 cm) of the hairless mice at a dosage rate of about 20 mg. At baseline (prior to the 1st treatment), and weekly, the dorsal skin was measured for transepidermal water loss (TEWL), skin moisture content, and skin elasticity. […] This instrument was equipped with dual probes which are placed on the skin surface and a quantitative measurement taken of the respective parameters and the measurements recorded on an integrated computer. […] The slides were weakly counter stained in Mayer's hematoxylin and scored under a light microscope for the number of BrdU-positive cells per mm of epidermis for each section. […]

[2] = system: senescent human skin fibroblasts; test: treatment of senescent human skin fibroblasts (cell number, actin staining, morphology); type: cell-based
Procedure: The effect of 6-furfurylamino-9-(2-tetrahydropyranyl)purine on senescent cells was also examined. An equal number of senescent cells were seeded in separate flasks and then treated with different concentrations of 6-furfurylamino-9-(2-tetrahydropyranyl)purine (0 to 400 μM). Cell numbers were determined after 7 and 14 days of treatment using a Coulter counter after trypsinisation and resuspension of the cells.
Late passage senescent cells with a life span of more than 95% were also treated with different concentrations of 6-furfurylamino-9-(2-tetrahydropyranyl)purine (0 to 200 μM) to assess age-related changes. The actin staining patterns were examined after three days. […] Less polymerized and diffused patterns of actin staining are generally associated with youthful characteristics of human fibroblasts. Thus, 6-furfurylamino-9-(2-tetrahydropyranyl)purine appears to revert some of the age-related changes in actin organization in senescent cells.
Senescent human skin fibroblasts were also treated with 6-furfurylamino-9-(2-tetrahydropyranyl)purine (0 to 400 μM) and evaluated for reversion of age-related changes. There were significant differences in the appearance of the cells after 7 and 30 days of treatment. […] Even at higher concentrations (200 and 400 μM), the 6-furfurylamino-9-(2-tetrahydropyranyl)purine-treated cells appeared to be smaller and have less intracellular debris as compared untreated cells.

[3] = system: Rat C6 glioma (ATCC No. CCL107); test: anti-inflammatory activity: isoproterenol-induced intracellular cAMP synthesis; type: cell-based; details: cAMP after 30 min with (−)-isoproterenol
Procedure: Anti-inflammatory activity of several of the 6,9-disubstituted purine derivatives of this invention was determined; kinetin was also evaluated as a control. Rat C6 glioma (ATCC No. CCL107) was cultivated in monolayer in serum-free chemically defined medium containing Ham's F10/minimal essential medium (1:1 v/v), 2 mM L-glutamine, 1% (v/v) minimal essential medium vitamins (100×), 1% (v/v) minimal essential medium nonessential amino acids (100×), 100 U/ml penicillin, […], and 30 nM sodium selenite. Incubation was performed at 37° C. in a humidified atmosphere. The assays were performed in the logaritmic growth phase at a density of 2.5×10^5 cells/cm^2. Intracellular cAMP synthesis was induced by addition of 5 mM (−)-isoproterenol; various amounts of test compounds were added at the same time as the (−)-isoproterenol. After 30 min incubation at 37° C., the medium was removed and the cellular amount of cAMP was determined using the cAMP-enzyme immunoassay kit from Amersham. The I50 value was determined from a dose-response curve in duplicate.

[4] = system: Human forskin fibroblasts (cell line BJ); test: in vitro cytotoxic activity, MTT assay; type: cell-based; details: 72 hours; BJ fibroblasts at middle passage
Procedure: In vitro cytotoxic activity of several of the 6,9-disubstituted purine derivatives of this invention against human diploid fibroblasts was determined by standard MTT assay optimized for 96-well plates. The assay is based on spectrofotometric measurement of the product of metabolic conversion of MTT by mitochondria of living cells.
Human forskin fibroblasts (cell line BJ) at middle passage were maintained in 75 cm^2 plastic tissue culture flasks and cultured in cell culture medium (DMEM with 5 g/l glucose, 2 mM glutamine, 100 U/ml penicillin, 100 μg/ml streptomycin, 10% fetal calf serum, and sodium bicarbonate).
About 5,000 cells were seeded per well of the 96-well plate. After 24 hours the cell culture medium was replaced with the cell culture medium containing a test compound. The test compounds were evaluated at six 2-fold dilutions. The highest concentration used in the present study was usually 200 μM. In the case of compounds with limited solubility in the culture medium the highest concentration was adjusted. Every test compound was examined in five replicates. Cells with the test compounds were incubated for 72 hours at 37° C. in 5% CO2 atmosphere and 100% humidity. At the end of the incubation period, the culture medium was replaced with the cell culture medium containing MTT (0.5 mg/ml) and cells were incubated for another 3 hours. The formazan formed was solubilized by DMSO and absorbance at 570 nm was measured. Ability of the tested compounds to inhibit MTT reducing activity of the cells was calculated as IC=(Acompound exposed well−mean Ablank)/(mean Acontrol well−meanAblank)×100%. IC10, the drug concentration causing 10% decrease in MTT reducing activity, was calculated from the obtained dose response curves.

## c1coc(CNc2ncnc3c2ncn3C2CCCCO2)c1 (stereo not shown) [6-furfurylamino-9-(2-tetrahydropyranyl)purine]
[1]; topical daily (Monday-Friday), Grade 0=no response to Grade 6=necrosis
  erythema (irritation) score: < 1 Grade
[1]; topical daily
  Skin Moisture Content (skin conductance): one of the highest increases in skin moisture
[2]; 0 to 400 μM, after 7 days
  cell number of senescent cells: No negative effects
[2]; 0 to 400 μM, after 30 days of treatment
  appearance of the cells (reversion of age-related changes): younger looking in terms of becoming thinner and arranged in arrays
[2]; 200 μM or more, after 14 days
  survival of senescent cells: slight negative effect on the survival of senescent cells
[2]; late passage senescent cells, 0 to 200 μM, after three days
  actin staining pattern: changed the actin staining pattern from a highly polymerized pattern to a less polymerized filament pattern
[2]; lower concentrations (below 200 μM), after 14 days
  cell number of senescent cells: no negative effects
[3]; Rattus norvegicus, C6 glioma, 0.5 h, read-out: Anti-inflammatory Activity I50
  IC50: 13 µM
[3]
  Anti-inflammatory Activity Effect: Inhibition
[4]
  IC10 (concentration causing 10% decrease in MTT reducing activity): >200 µM
